Results reported in ChEMBL document CHEMBL4680251, “Discovery of a 2-pyridinyl urea-containing compound YD57 as a potent inhibitor of apoptosis signal-regulating kinase 1 (ASK1)” (Eur J Med Chem, 2020).

What was measured:
[1] = molecular target: T1, Mitogen-activated protein kinase kinase kinase 5 (Homo sapiens, UniProt Q99683); experiment: Inhibition of ASK1 (unknown origin)
T1 sequence (Q99683 whole entry): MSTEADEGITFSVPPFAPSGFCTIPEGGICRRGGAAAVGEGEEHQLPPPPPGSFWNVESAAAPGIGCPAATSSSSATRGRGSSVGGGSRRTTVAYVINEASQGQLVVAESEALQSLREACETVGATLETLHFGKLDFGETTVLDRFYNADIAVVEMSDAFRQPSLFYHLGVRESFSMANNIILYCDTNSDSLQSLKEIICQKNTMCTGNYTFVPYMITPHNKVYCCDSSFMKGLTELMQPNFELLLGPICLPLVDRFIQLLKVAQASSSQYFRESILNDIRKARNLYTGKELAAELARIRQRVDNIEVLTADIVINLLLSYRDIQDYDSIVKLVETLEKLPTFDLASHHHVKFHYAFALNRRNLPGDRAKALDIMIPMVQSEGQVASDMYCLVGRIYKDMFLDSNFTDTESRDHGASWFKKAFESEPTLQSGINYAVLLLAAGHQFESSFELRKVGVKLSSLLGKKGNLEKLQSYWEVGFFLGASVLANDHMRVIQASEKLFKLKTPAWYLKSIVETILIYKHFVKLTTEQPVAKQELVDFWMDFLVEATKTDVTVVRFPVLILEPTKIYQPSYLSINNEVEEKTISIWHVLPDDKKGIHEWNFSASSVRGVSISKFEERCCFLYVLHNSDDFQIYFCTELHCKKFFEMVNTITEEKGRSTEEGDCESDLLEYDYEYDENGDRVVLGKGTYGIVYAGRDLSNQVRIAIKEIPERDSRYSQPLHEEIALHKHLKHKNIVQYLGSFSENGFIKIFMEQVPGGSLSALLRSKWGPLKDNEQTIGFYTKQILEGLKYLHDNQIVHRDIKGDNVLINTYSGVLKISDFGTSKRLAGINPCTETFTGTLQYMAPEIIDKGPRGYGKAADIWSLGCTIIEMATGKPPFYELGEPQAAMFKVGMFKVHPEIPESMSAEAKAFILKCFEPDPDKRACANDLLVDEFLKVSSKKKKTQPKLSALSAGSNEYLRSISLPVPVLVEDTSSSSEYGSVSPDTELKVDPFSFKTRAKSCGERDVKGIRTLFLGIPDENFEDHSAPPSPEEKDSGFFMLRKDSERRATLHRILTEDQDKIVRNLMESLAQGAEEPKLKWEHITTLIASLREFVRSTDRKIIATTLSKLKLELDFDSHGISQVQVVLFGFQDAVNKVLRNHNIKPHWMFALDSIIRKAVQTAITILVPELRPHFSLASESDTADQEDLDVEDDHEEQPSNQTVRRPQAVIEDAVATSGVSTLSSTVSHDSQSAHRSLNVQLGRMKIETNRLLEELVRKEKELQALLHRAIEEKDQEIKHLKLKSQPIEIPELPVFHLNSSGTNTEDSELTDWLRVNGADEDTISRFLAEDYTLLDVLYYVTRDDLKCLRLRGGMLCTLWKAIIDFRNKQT

HepG2 [2] = experiment: Induction of cell cycle arrest in human HepG2 cells assessed as accumulation at G2/M phase at 16 uM incubated for 24 hrs by propidium iodide staining based flow cytometry (reference value: 33.49%); format: functional
CDK3/Cyclin E = CDK3/Cyclin E (Homo sapiens, UniProt Q00526); experiment: Inhibition of full length human recombinant CDK3/Cyclin E using histone H1 as substrate incubated for 40 mins in presence of [gamma-33ATP] by radiometric scintillation counting analysis; format: protein-complex assay
Chain of CDK3/Cyclin E (P24864 whole entry): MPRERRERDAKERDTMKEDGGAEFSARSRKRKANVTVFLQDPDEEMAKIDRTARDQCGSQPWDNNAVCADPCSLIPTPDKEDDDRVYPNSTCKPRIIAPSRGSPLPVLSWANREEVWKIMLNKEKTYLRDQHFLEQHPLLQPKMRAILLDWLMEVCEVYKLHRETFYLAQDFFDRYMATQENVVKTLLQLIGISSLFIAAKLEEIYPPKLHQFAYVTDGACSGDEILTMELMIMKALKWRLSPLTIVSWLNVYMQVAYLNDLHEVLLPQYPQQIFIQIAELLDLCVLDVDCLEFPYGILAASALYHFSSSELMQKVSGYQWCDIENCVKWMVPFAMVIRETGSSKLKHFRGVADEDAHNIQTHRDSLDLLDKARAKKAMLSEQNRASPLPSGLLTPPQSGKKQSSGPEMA
Chain of CDK3/Cyclin E (Q00526 whole entry): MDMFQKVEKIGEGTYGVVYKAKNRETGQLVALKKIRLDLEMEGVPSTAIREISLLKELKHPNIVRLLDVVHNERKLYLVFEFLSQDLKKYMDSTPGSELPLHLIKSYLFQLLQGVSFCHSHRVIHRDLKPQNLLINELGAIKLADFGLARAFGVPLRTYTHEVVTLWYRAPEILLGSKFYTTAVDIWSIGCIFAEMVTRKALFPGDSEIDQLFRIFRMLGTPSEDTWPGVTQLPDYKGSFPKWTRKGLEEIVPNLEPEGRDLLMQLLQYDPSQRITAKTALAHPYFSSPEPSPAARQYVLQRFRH

HepG2 [3] = experiment: Induction of cell cycle arrest in human HepG2 cells assessed as accumulation at G2/M phase at 0.5 uM incubated for 24 hrs by propidium iodide staining based flow cytometry (reference value: 33.49%); format: functional
[4] = molecular target: T2, Mitogen-activated protein kinase kinase kinase 6 (Homo sapiens, UniProt O95382); experiment: Inhibition of ASK2 (unknown origin)
T2 sequence (O95382 whole entry): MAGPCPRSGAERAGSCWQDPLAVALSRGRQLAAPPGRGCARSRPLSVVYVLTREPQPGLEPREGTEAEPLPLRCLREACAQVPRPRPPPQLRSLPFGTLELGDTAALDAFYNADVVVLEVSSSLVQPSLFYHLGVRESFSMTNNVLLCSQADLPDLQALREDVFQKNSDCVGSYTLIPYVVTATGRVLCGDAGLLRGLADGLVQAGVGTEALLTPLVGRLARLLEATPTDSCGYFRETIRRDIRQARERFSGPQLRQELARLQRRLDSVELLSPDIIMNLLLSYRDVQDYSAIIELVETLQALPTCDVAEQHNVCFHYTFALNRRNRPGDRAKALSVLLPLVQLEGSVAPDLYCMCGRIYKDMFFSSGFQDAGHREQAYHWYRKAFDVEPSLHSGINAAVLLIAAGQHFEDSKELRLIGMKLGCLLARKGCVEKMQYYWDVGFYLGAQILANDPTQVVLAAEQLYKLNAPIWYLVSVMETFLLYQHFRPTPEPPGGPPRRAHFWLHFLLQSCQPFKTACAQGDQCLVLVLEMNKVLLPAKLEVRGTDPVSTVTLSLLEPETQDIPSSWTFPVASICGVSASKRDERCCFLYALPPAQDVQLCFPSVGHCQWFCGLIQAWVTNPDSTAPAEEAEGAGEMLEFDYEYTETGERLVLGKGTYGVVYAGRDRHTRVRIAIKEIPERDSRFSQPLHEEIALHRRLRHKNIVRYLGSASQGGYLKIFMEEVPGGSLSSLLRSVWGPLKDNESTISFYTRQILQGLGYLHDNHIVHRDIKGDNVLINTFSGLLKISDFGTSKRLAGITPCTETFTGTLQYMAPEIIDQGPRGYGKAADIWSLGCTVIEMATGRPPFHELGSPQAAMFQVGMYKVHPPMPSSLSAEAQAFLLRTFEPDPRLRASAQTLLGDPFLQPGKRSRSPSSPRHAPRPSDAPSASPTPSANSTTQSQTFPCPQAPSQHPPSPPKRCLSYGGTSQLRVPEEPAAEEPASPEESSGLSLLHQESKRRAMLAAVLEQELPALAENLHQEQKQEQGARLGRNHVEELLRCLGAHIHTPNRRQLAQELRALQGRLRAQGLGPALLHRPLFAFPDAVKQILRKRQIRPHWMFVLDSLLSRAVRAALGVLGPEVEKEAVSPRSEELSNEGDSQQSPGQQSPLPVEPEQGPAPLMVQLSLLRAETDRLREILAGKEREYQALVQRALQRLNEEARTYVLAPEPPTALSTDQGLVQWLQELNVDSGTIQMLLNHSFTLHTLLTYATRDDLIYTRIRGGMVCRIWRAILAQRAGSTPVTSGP

[5] = molecular target: Glycogen synthase kinase-3 beta (Homo sapiens, UniProt P49841); experiment: Inhibition of human recombinant GSK3 beta H350L mutant using YRRAAVPPSPSLSR as substrate incubated for 40 mins in presence of [gamma-33ATP] by radiometric scintillation counting analysis
Chain of Glycogen synthase kinase-3 beta (P49841 whole entry): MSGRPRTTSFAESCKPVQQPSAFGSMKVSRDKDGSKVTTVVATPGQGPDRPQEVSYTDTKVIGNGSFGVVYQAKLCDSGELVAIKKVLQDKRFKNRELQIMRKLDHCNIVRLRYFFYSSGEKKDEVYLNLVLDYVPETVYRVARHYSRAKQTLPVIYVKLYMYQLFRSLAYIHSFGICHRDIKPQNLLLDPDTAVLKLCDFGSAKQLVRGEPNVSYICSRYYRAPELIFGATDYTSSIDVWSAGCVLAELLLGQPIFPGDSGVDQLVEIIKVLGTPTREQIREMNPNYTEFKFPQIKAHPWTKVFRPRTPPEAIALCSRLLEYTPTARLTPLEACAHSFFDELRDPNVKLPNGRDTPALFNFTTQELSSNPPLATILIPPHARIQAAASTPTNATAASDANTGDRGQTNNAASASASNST

[6] = Inhibition of human full length recombinant CDK9/cyclin T1 using KTFCGTPEYLAPE as substrate incubated for 40 mins in presence of [gamma-33ATP] by radiometric scintillation counting analysis

Compound `C[C@H](CO)n1cnnc1-c1cccc(NC(=O)Nc2cc3ccccn3n2)n1` has an IC50 [1] of 33.8 nM, an Activity (HepG2 [2]) of 32.64% and an IC50 (CDK3/Cyclin E) of 117 nM. It also gave an Activity (HepG2 [3]) of 27.33%, an IC50 [4] of 5290 nM and an IC50 [5] of 283 nM. It also gave an IC50 [6] of 94.2 nM.
